Source: ChEMBL document CHEMBL2094269, “WEHI/Eskitis Trypanosoma b. brucei screening data”
Values joined by “and” are separate entries in the source; they are usually repeats but may differ in a detail not shown here. Equal entries are not always repeated.

Tested on: Trypanosoma brucei brucei
Assay: microbe, parasite or virus in culture
Type: functional, organism-based, STIB 795

IC50 (Trypanosoma brucei, STIB 795) [µM] | IC50 | Structure (SMILES)
> 10.4 |  | Cc1ccc(O)c(/C=N/NC(=O)C2=NNC(c3ccccc3)(c3ccccc3)C2)c1
> 10.4 |  | CC(C)N1C/C(=C/c2ccsc2)C(=O)/C(=C/c2ccsc2)C1
> 10.4 |  | CC1(C)CC(NC(=O)c2ccc(C#Cc3ccccc3)cc2)CC(C)(C)N1
> 10.4 |  | O=C(CCCOc1ccc(Cl)cc1Cl)N/N=C/c1ccc(O)cc1O
> 10.4 |  | CCCCCOc1ccc(NC(=N)Nc2nc(C)cc(C)n2)cc1
> 10.4 |  | COc1cc(C(=O)O/N=C(\N)c2ccncc2)cc(OC)c1OC
> 10.4 |  | O=C1C(C2=C(O)c3ccccc3C2=O)=Nc2ccccc21
> 10.4 |  | COc1ccc(-c2noc(CCC(=O)Nc3ccncc3)n2)cc1OC
> 10.4 |  | O=C(N/N=C/c1ccc(-c2ccc(Br)cc2)o1)c1ccco1
> 10.4 |  | Cc1cccc(/C(=N\c2ccc(C)c(Cl)c2)NC2CCCCC2)c1
> 10.4 |  | CC1CCN(Cc2cc(CSc3ccccc3)c3cccnc3c2O)CC1
> 10.4 |  | CCn1cc(C(=O)N(C)c2ccccc2F)c2cc(OC)c(OC)cc2c1=O
> 10.4 |  | Cc1nc2ccc3nc(NC(=O)c4ccc(Cl)cc4Cl)sc3c2s1
> 10.4 |  | [H]/N=C(/N)SCc1nc2n(Cc3ccccc3)c3ccccc3n2c1C(=O)OC
> 10.4 |  | O=C(Nc1ccccc1C(=O)N/N=C/c1ccccn1)c1ccc(Cl)cc1
> 10.4 |  | O=C(/C=C/c1ccccc1)Nc1c(-c2ccccc2)nc2ccc(Cl)cn12
> 10.4 |  | CCCC(CCC)C(=O)Nc1ccc(O)cc1C(=O)O
> 10.4 |  | O=C1/C(=N\c2ccccc2)Sc2ccccc21
> 10.4 |  | CSc1ccc(C2N=C(c3ccc(C)cc3)CC(c3ccccc3O)N2)cc1 (centres undefined)
> 10.4 |  | Cc1ccc(S(=O)(=O)C(CC(=O)c2ccco2)c2ccc(Cl)cc2)cc1 (centres undefined)
4.58 | 4.75 µM | Cc1ccccc1-c1nnnn1C1CC(=O)C2OCC1O2 (centres undefined)
> 10.4 |  | CC1CCc2nc3ccccc3c(N)c2C1 (centres undefined)
> 10.4 |  | CC(=O)N1/C(=C/c2ccncc2)C(=O)c2ccccc21
> 10.4 |  | CSc1ccc(/C=C2\CN(C)C/C(=C\c3ccc(SC)cc3)C2=O)cc1
> 10.4 |  | Cc1ccc(Nc2nc3c(N)nnc(N)c3nc2Nc2ccc(C)cc2)cc1

IC50 (Trypanosoma brucei, STIB 795) [µM] | IC50 | Structure (SMILES)
> 10.4 |  | O=C(Nc1nccs1)c1ccc(=O)n(Cc2ccccc2Cl)c1
> 10.4 |  | CCOc1ccc(C(=O)CC(c2ccccc2)C(C#N)C#N)cc1 (centres undefined)
> 10.4 |  | CC(=O)c1nc2ccccc2n1CC(=O)c1ccc(C)cc1
> 10.4 |  | Cc1ccc(C(=N)NOC(=O)c2cccs2)cc1
> 10.4 |  | C/C(=N\NC(=O)c1cccc(Cl)c1)c1ccccc1O
> 10.4 |  | CCCCOc1cccc(-c2cc(C(=O)N/N=C(\C)CC)c3ccccc3n2)c1
> 10.4 |  | ON=C(/C=C/c1ccccc1)/C=C/c1ccccc1
> 10.4 |  | Cc1ccc(Nc2nn3nnnc3c3ccccc23)c(C)c1
> 10.4 |  | Cc1occc1C(=O)O/N=C(\N)c1ccc(Cl)cc1
> 10.4 |  | CCc1ccccc1Nc1cc(C)nc2c(OC)cccc12
> 10.4 |  | C=CCc1cccc(/C=N/NC(=O)c2cccs2)c1O
> 10.4 |  | C/C(=N/Nc1ccc(F)cc1F)c1cc2cc(Br)ccc2oc1=O
> 10.4 |  | NC(CCCCc1ccccc1)c1cccc2ccccc12 (centres undefined)
> 10.4 |  | CCOC(=O)c1sc(-n2[nH]c(C)c(Cc3ccc(Cl)cc3)c2=O)nc1C
> 10.4 |  | Oc1ccccc1/C=N/Nc1ncc(Cl)cc1Cl
> 10.4 |  | CCCC(=O)NC(c1ccc2c(c1)OCO2)c1cc(Cl)c2cccnc2c1O (centres undefined)
> 10.4 |  | Cc1c(-c2noc(C(=O)NC(C)C)n2)oc2c(C)cccc12
 | 0.39 µM and 0.092 µM | CCN1CCS/C1=C\C=C\C1=[N+](CC)CCS1
> 10.4 |  | COc1ccc(/C(C)=N\Nc2nnc(C)c(O)n2)cc1
> 10.4 |  | COc1ccc(C(=O)NN=C2C=C(C(C)(C)C)C(=O)C(C(C)(C)C)=C2)cc1OC
> 10.4 |  | CCOc1cccc(CNCCO)c1OCc1ccc(Cl)cc1Cl
> 10.4 |  | O=C(Nc1nc(-c2ccncc2)cs1)c1ccc(Oc2ccccc2)cc1
> 10.4 |  | CCCC1(CCC)c2ccccc2C(=CCCN(C)C)c2ccccc21
> 10.4 |  | CCCC(=O)c1ccc(N2CCN(C(=O)c3c(F)cccc3F)CC2)c(F)c1
> 10.4 |  | Cc1ccc(C(CC(=O)c2ccco2)SCCO)cc1 (centres undefined)

IC50 (Trypanosoma brucei, STIB 795) [µM] | IC50 | Structure (SMILES)
> 10.4 |  | CCN(CC(O)COCCC12CC3CC(CC(C3)C1)C2)C1CCCCC1 (centres undefined)
> 10.4 |  | O=C(CSc1nc2[nH]ncc2c(=O)n1-c1ccccc1)Nc1nccs1
> 10.4 |  | COC(=O)C1=C(C)NC(=O)/C1=C\c1cccc(OC)c1OC
> 10.4 |  | Brc1ccc(C2Nc3cccc4cccc(c34)N2)o1
> 10.4 |  | Oc1ccccc1/C=N/Nc1nc2ccccc2n2nnnc12
> 10.4 |  | COCCN1CSC(=S)N(Cc2ccc(OC)cc2)C1
> 10.4 |  | Cc1ccc(C(CNC(=O)c2ccc(Br)cc2)N2CCCC2)cc1 (centres undefined)
> 10.4 |  | C(=N\Nc1nc(-c2ccccc2)cs1)/c1ccncc1
> 10.4 |  | COc1ccc(Nc2nccc(-c3cccc(N)c3)n2)cc1
> 10.4 |  | Cc1ccc(CN2C(=O)CCC2C(=O)N2CCN(c3ccc(F)cc3)CC2)cc1 (centres undefined)
> 10.4 |  | N#C/C(=C\Nc1cc(Cl)ccc1O)c1nc2cc(Cl)ccc2o1
> 10.4 |  | CCOc1cccc(/C=N/NC(=O)c2cc(-c3ccc(CC)cc3)n[nH]2)c1O
> 10.4 |  | Cc1ccccc1-c1cc(N2CCN(C(=O)NC3CCCCC3)CC2)ncn1
> 10.4 |  | N=c1n(Cc2ccccc2Cl)c2ccccc2n1CC(O)c1ccco1 (centres undefined)
> 10.4 |  | O=c1cc(-c2ccccc2)c2ccc(O)c(O)c2o1
> 10.4 |  | CNc1nsc(C(=O)c2ccc(C)cc2)c1N
> 10.4 |  | CCOC(=O)c1c(NC(C)=O)sc2c1CCC(Sc1ccccc1)C2O (centres undefined)
> 10.4 |  | CCOC(=O)c1ccc(Nc2ncnc3c2cnn3-c2ccc(C)cc2C)cc1
> 10.4 |  | COc1ccc(O)c(/C=N/NC(=O)c2nonc2C)c1
> 10.4 |  | C1CCC(Nc2nc3nonc3nc2NC2CCCCC2)CC1
> 10.4 |  | COc1cc(C(CC(=O)c2ccco2)Sc2ccccc2)cc(OC)c1OC (centres undefined)
> 10.4 |  | COc1cc2c(cc1Cl)/C(=C\CCN(C)C)c1ccccc1S2
> 10.4 |  | CCN1CCN(c2cc(C)c3cc(NC(=O)c4ccccc4F)ccc3n2)CC1
> 10.4 |  | S=C1N(c2ccccc2)c2ccccc2C12CCOCC2
> 10.4 |  | N#Cc1c(N)nc(SCc2ccccc2)c(C#N)c1C1CCCCC1

IC50 (Trypanosoma brucei, STIB 795) [µM] | IC50 | Structure (SMILES)
> 10.4 |  | O=C(CCSc1ccccc1)Nc1nc(-c2ccccn2)cs1
> 10.4 |  | COc1ccc(C(=O)O/N=C(\N)c2ccc(Br)cc2)c(OC)c1
> 10.4 |  | Cc1nc(N)nc(N)c1[C@@H]1CCC[C@@H](c2ccc(C(F)(F)F)cc2)C1
> 10.4 |  | O=c1[nH]c(NCCCO)nc2sc3c(c12)CCCC3
> 10.4 |  | CN(C)CC(C(=O)c1ccccc1)c1ccccc1 (centres undefined)
> 10.4 |  | CN(C)CCNC(=O)c1ccc2c(c1)NC(=O)/C(=C/c1ccccc1Cl)O2
> 10.4 |  | O=C(N/N=C/c1ccc(O)c2ncccc12)c1ccco1
> 10.4 |  | Cc1c(-c2ccc(O)c(O)c2)oc2ccccc2c1=O
> 10.4 |  | Cc1ccsc1C=NN1CCN(c2ccc(Cl)cc2)CC1
> 10.4 |  | CCc1cc(-c2n[nH]c(C)c2-c2nc3ccccc3s2)c(O)cc1O
> 10.4 |  | COc1ccc2c(C)c/c(=N/N=C\c3ccccc3O)[nH]c2c1
> 10.4 |  | CN(CC(=O)Nc1nncs1)S(=O)(=O)c1ccc(Br)cc1
> 10.4 |  | N=C(NOC(=O)C12CC3CC(CC(C3)C1)C2)c1cccnc1
> 10.4 |  | COc1ccccc1-c1nnc(Cc2ccc(F)cc2Cl)o1
> 10.4 |  | Clc1ccc2nc(CCc3ccccc3)nc(NCCN3CCCCC3)c2c1
> 10.4 |  | CC(C)C(=O)NC(c1cccs1)c1cc(Cl)c2cccnc2c1O (centres undefined)
> 10.4 |  | Cn1c(=O)sc2cc(S(=O)(=O)Nc3cccc4cccnc34)ccc21
> 10.4 |  | CC(NC(=O)c1cc(S(=O)(=O)N2CCCC2)cn1C)c1ccccc1 (centres undefined)
> 10.4 |  | OCCN1CCN(Cc2ccccc2Sc2ccc3ccccc3c2)CC1
> 10.4 |  | CCC(CO)NCC(O)Cn1c2ccc(Cl)cc2c2cc(Cl)ccc21 (centres undefined)
> 10.4 |  | CCN(CC)CCOC(COC)(c1ccc(Cl)cc1)c1ccc(Cl)cc1
> 10.4 |  | Nc1ncc(CCc2cccc(-c3ccccc3)c2)c(N)n1
> 10.4 |  | N=C(NOC(=O)c1ccoc1)c1ccc(Br)cc1
> 10.4 |  | Cc1ccc(Nc2cc(C)nc(N3CCN(C(=O)c4ccco4)CC3)n2)cc1
> 10.4 |  | N#Cc1ccc(-c2csc(NNC(=O)c3ccco3)n2)cc1

IC50 (Trypanosoma brucei, STIB 795) [µM] | IC50 | Structure (SMILES)
> 10.4 |  | CCOc1ccc2c(C)nc(NC3=NC(C)=CC(C)(C)N3)nc2c1
> 10.4 |  | CN(C)CCOC1c2ccccc2CCc2ccc3ccccc3c21 (centres undefined)
> 10.4 |  | N#CC(c1ccc(Cl)cc1Cl)c1cnnc2ccccc12 (centres undefined)
> 10.4 |  | COc1ccccc1CCNCc1ccc(OC)c(OCc2ccccc2)c1
> 10.4 |  | CON(C)C(=O)Nc1ccc(Cl)c(CN2OCC(C)(C)C2=O)c1
> 10.4 |  | O=C(CCN1CCC(c2ccccc2)C1)c1ccco1 (centres undefined)
> 10.4 |  | C=CCN1C(=O)c2[nH]nc(-c3c(C)cc(C)cc3O)c2C1c1ccc(F)cc1 (centres undefined)
> 10.4 |  | CC1CC(NC2CCCCC2)=Nc2ccccc2N1Cc1ccccc1 (centres undefined)
> 10.4 |  | c1ccc(CCCNc2ccnc3cc4ccccc4cc23)cc1
> 10.4 |  | O=C(Nc1cc(Cl)cc(Cl)c1)c1ccccn1
> 10.4 |  | O=C1C(=O)N(CO)c2ccc(Br)cc21
> 10.4 |  | CCOC(=O)C(=Cc1ccc(Br)cc1)C(=O)OCC
> 10.4 |  | O=c1oc2c(cc(NS(=O)(=O)c3ccc(F)cc3)c3ccccc32)s1
> 10.4 |  | CCN(CC)c1cc(C)c2cc(NC(=O)/C=C/c3ccc(OC)cc3)ccc2n1
> 10.4 |  | O=C(CCN1CCCCC1)Nc1ccc(C2CCCC2)cc1
> 10.4 |  | Cc1c(-c2cc(Cl)cc(-c3ccc(F)cc3)c2)ccc2nc(N)nc(N)c12
> 10.4 |  | O=C(O)c1ccc(NC(CC(=O)c2ccc(Cl)cc2)c2ccccc2)cc1 (centres undefined)
> 10.4 |  | Cc1cccc(C(=N)NOC(=O)c2ccc3c(c2)OCO3)c1
> 10.4 |  | O=C(Cn1ncc(Cl)c(Cl)c1=O)c1ccccc1
> 10.4 |  | Cc1cc(C)c(C(=O)CC(SCC(=O)OC(C)C)C(F)(F)F)c(=O)[nH]1 (centres undefined)
> 10.4 |  | CCN(CC)c1ccc(/C=N\NC(=O)c2ccccn2)c(O)c1

Structure (SMILES) | IC50 (Trypanosoma brucei, STIB 795) [µM] | IC50
CC(Cc1ccccc1)NCCC1c2ccccc2-c2ccccc21 (centres undefined) | > 10.4 | 
OC(c1ccc(Cl)s1)(c1ccc(Cl)s1)C1CN2CCC1CC2 (centres undefined) | > 10.4 | 
